Assay results from patent US9968634B2, “Techniques and systems for treatment of neuropathic pain and other indications” (priority 2012, dated 2018).

Columns and labels:
[1] = tested on: micro-capillary blood flow to skin; assay: Laser Doppler study with closed Hilltop chamber on forearm, Example 5; type: in vivo, human; settings: applied to the skin at 1/10% in alcohol
Text: The formulation used in these studies contained nitric oxide dispersed in a lipid matrix. […] Nitric oxide is a very rapid acting molecule, and these studies used a system that employed laser Doppler with a covered chamber. The formulation was placed into the chamber and then attached to the skin by an adhesive layer on the covering. This provided a stable measuring device as determined by multiple normal evaluations of the capillary blood flow without treatment of nitric oxide.
A known positive control, methyl nicotinate, was applied to the skin at a concentration of 1/10% in alcohol. […] The vascular dynamics are such that when the blood vessels dilate physical parameters follow Bernoulli's law. […] The laser Doppler device accurately measured these parameters.
In these studies, the participants were healthy females aged 30 to 55 years. They were in good health as determined by the medical history and were not taking any prescription medications. All study participants read and signed the informed consent statement prior to any study procedures being performed. […]
A Moor Instruments DRT4 Laser Doppler Blood Flow Monitor (Devon, England) was used in these studies. The laser Doppler technique measured blood flow in the microcapillaries of the skin that are close to the skin surface and the blood flow in underlying arterioles and venules that help to regulate skin temperature. […]

[2] = tested on: capillary circulation of the skin; assay: Laser Doppler study of creams in five human subjects, Example 7; type: in vivo; settings: positive control formulation, 0.1% methyl nicotinate
Text: This example illustrates delivery of nitric oxide formulations to five human subjects, using procedures and formulations similar to those discussed in Example 5. Each person served as their own control for the testing. A Moor Instruments Laser Doppler was used to determine circulation. […] The formulations used produce positive, almost immediate results when applied to the skin which, in these studies, was manifested by vasodilatation of the cutaneous vascular system.
For each subject, the following creams were applied: a negative control formulation (containing no NO), 0.010 gram of a 10,000 ppm NO formulation, 0.020 gram of a 10,000 ppm NO formulation, and a positive control formulation containing 0.1% methyl nicotinate. The formulations were prepared using procedures similar to those discussed in Example 1.

How did the “laser Doppler response of positive control” value [1] turn out when `COC(=O)c1cccnc1` [methyl nicotinate] was run?
The value was “rapid response typical of the vasodilator”.

What about the “vasodilatation (laser Doppler)” value [2] of the same compound?
Its value is “vasodilatation was observed”.
